PMC7297664 (2020)

How the values were obtained:
[1] = test system: RNA 1 (canonical theophylline aptamer) (RNA, aptamer) GGCGAUACCAGCCGAAAGGCCCUUGGCAGCGUC; assay: ITC; conditions: conditions as previously reported (cited)
[2] = test system: RNA 9 (canonical theophylline aptamer, Cy5) (RNA, aptamer) GGCGAUACCAGCCGAAAGGCCCUUGGCAGCGUC; assay: microscale thermophoresis (MST); conditions: Na+ 150 mM (NaCl); TBS: 50 mM Tris-HCl pH 7.5; 10 nM RNA; incubated in ice
[3] = test system: RNA 12 (8-oxoG at G11) (RNA, aptamer, 7,8-dihydro-8-oxoguanosine at 11) GGCGAUACCAGCCGAAAGGCCCUUGGCAGCGUC; assay: MST binding check; conditions: Na+ 150 mM (NaCl), 10 nM RNA
[4] = test system: RNA 9 (canonical theophylline aptamer, Cy5) (RNA, aptamer) GGCGAUACCAGCCGAAAGGCCCUUGGCAGCGUC; assay: MST binding check; conditions: Na+ 150 mM (NaCl), 10 nM RNA
[5] = test system: RNA 11 (8-oxoG at G26) (RNA, aptamer, 7,8-dihydro-8-oxoguanosine at 26) GGCGAUACCAGCCGAAAGGCCCUUGGCAGCGUC; assay: MST binding check; conditions: Na+ 150 mM (NaCl), 10 nM RNA
[6] = test system: RNA 10 (8-oxoG at G25) (RNA, aptamer, 7,8-dihydro-8-oxoguanosine at 25) GGCGAUACCAGCCGAAAGGCCCUUGGCAGCGUC; assay: MST binding check; conditions: Na+ 150 mM (NaCl); TBS: 50 mM Tris-HCl pH 7.5; 10 nM RNA; up to 11.25 mM
[7] = test system: RNA 10 (8-oxoG at G25) (RNA, aptamer, 7,8-dihydro-8-oxoguanosine at 25) GGCGAUACCAGCCGAAAGGCCCUUGGCAGCGUC; assay: microscale thermophoresis (MST); conditions: Na+ 150 mM (NaCl); TBS pH 7.5, up to 5% DMSO; up to 1 mM; incomplete curve, solubility; abstract gives ≈160 μM
[8] = TBS: 50 mM Tris-HCl pH 7.5, up to 11.25 mM
[9] = TBS pH 7.5, up to 5% DMSO, up to 1 mM

SMILES | Kd ([1]; mean of two runs, 0.72 and 1.98 μM) [µM] | Kd [2] [µM] | binding [3, 8] | binding ([1]; printed Kd = NA) | binding [4, 8] | binding [5, 8] | binding [6] | binding [4, 9] | binding [5, 9] | Kd [7] [µM] | binding [3, 9]
Cn1c(=O)c2[nH]cnc2n(C)c1=O | 1.35 | 29 ± 35 | no | – | – | – | – | – | – | – | –
Cn1c(=O)c2c(ncn2C)n(C)c1=O | – | – | no | no | no | no | no | – | – | – | –
Cn1cnc2c1c(=O)[nH]c(=O)n2C | – | – | – | – | – | – | – | no | no | > 160 | no
